In patent US8980906B2, “Pyridonemorphinan analogs and biological activity on opioid receptors” (Purdue Pharma L.P., priority 2012, dated 2015) one finds Ki data, which are given here for 2 compounds.

Each structure is given as a SMILES string.

This assay has as its target δ-opioid receptor (Homo sapiens (Human), UniProt P41143). Put plainly: δ-opioid receptor radioligand dose-displacement binding assay ([3H]-Naltrindole). The settings on record: binding affinity, [3H]-Naltrindole displacement. The method, then: δ-Opioid Receptor Binding Assay Procedures: δ-Opioid Receptor Binding Assay Procedures were conducted as follows. Radioligand dose-displacement assays used 0.2 nM [^3H]-Naltrindole (Perkin Elmer, Shelton, Conn.; 33.0 Ci/mmole) with 5 μg membrane protein (Perkin Elmer, Shelton, Conn.) in a final volume of 500 μl binding buffer (5 mM MgCl2, 5% DMSO, 50 mM Trizma base, pH 7.4). Non-specific binding was determined in the presence of 25 μM unlabeled naloxone. All reactions were performed in 96-deep well polypropylene plates for 1 hour at a temperature of about 25° C. Binding reactions were terminated by rapid filtration onto 96-well Unifilter GF/C filter plates (Perkin Elmer, Shelton, Conn.) presoaked in 0.5% polyethylenimine (Sigma). Harvesting was performed using a 96-well tissue harvester (Perkin Elmer, Shelton, Conn.) followed by five filtration washes with 500 μl ice-cold binding buffer. Filter plates were subsequently dried at 50° C. for 1-2 hours. Fifty μl/well scintillation cocktail (Perkin Elmer, Shelton, Conn.) was added and plates were counted in a Packard Top-Count for 1 min/well.

Chain of δ-opioid receptor (P41143 whole entry, looked up): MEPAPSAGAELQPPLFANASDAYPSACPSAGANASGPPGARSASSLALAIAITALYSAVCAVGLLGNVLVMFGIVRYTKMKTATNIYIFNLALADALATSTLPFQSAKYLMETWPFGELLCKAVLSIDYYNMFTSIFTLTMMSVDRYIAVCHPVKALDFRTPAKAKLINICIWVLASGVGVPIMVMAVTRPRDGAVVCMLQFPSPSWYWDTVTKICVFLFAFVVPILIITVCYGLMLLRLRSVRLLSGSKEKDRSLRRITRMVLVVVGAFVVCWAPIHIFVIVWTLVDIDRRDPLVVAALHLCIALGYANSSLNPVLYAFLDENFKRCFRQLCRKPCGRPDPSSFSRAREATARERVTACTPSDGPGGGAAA

In general, Ki refers to a measure of affinity in units of concentration, obtained from inhibition or displacement. Read a high Ki as a looser hold on the target. In the case of `O=C(O)c1cc2c([nH]c1=O)C[C@]13CCN(CC4CC4)[C@H](Cc4ccc(O)cc41)[C@]3(O)C2` [Compound 9, (6R,6aS,12aR)-15-(cyclopropylmethyl)-2,6a-dihydroxy-10-oxo-6,6a,7,10,11,12-hexahydro-5H-6,12a-(epiminoethano)naphtho[2,1-g]quinoline-9-carboxylic acid], the affinity, expressed as Ki, was 18.5 ± 2.14 nM.
`NC(=O)c1cc2c([nH]c1=O)C[C@]13CCN(CC4CC4)[C@H](Cc4ccc(O)cc41)[C@]3(O)C2` [Compound 5, (6R,6aS,12aR)-15-(cyclopropylmethyl)-2,6a-dihydroxy-10-oxo-6,6a,7,10,11,12-hexahydro-5H-6,12a-(epiminoethano)naphtho[2,1-g]quinoline-9-carboxamide] returned an inhibition constant (Ki) of 26.4 ± 7.23 nM.
